Assay [1] relates to HIV protease. The conditions noted are these: substrate of HIV protease; MENDT buffer pH 6.0, 37°C.
Procedure: The enzyme used to assay the peptide of this invention was produced in this manner and purified from the cell pellet as follows. The E. coli cell pellet was resuspended in a buffer consisting of 50 mM Tris-­HCl, pH 7.5; 1.0 mM each DTT, EDTA and PMSF (phenylmethylsulfonyl fluoride). The cells were lysed by sonication and insoluble material was removed by centrifugation at 15,000 x g av, for 15 min. The clarified supernatant was then brought to 40% of saturation with ammonium sulfate This suspension was stirred at room temperature for 30 min. and then centrifuged as above. […] The effluent of the column was monitored at 280 nm and 1 min. fractions collected.
Initial rate data for oligopeptides were determined at pH 6.0, 37°C. […] Samples were centrifuged at 17,000 rpm for 5 min., and the peptide substrates and products were separated and quantified (by peak integration) by reverse phase HPLC. Initial rates were determined as (mM peptide product formed)/min based on the percentage of conversion of substrate to product for a given concentration of substrate. […] Kinetic constants (Michaelis constants, maximal velocities) were determined by fitting initial rate data to the Michaelis-Menten equation (v = Vmax(S)/(Km + (S))) using the Fortran program of Cleland (W. W. Cleland, Adv. Enzymol. 29, 1, (1967)). […]
Assay [2] has as its system retroviral proteases associated with bovine leukemia virus. The conditions noted are these: cited from earlier work.
In assay [3] the target is retroviral proteases associated with Moloney murine leukemia virus (Moloney murine leukemia virus, UniProt P03355). The conditions noted are these: cited from earlier work.
The target of assay [4] is retroviral proteases associated with human T-cell leukemia virus (Human T-cell leukemia virus 1, UniProt P10274). The conditions noted are these: cited from earlier work.

Where a SMILES comes first, the peptide text is derived from it. [ ]: non-standard residue; d: D form. The star is where a group is joined. Sta = CC(C)C[C@H](N)[C@@H](O)CC(=O)O; Isovaleryl = CC(C)CC(=O)*

Chain of retroviral proteases associated with Moloney murine leukemia virus (P03355 535-659): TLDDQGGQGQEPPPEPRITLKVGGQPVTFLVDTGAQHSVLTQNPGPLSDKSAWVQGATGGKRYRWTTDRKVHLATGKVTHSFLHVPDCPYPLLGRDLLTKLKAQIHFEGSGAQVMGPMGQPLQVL
Chain of retroviral proteases associated with human T-cell leukemia virus (P10274 450-574): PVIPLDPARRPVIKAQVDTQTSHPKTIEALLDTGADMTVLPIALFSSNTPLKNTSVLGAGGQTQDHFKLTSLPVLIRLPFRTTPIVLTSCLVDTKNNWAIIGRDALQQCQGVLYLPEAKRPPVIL

As for “N-acetyl-L-arginyl-L-alanyl-L-seryl-L-glutaminyl-L-asparaginyl-L-tyrosyl-L-prolyl-L-valyl-L-valinamide”, the Michaelis constant (Km) in assay [1] is 7 mM.
For the compound `CC(C)CC(=O)N[C@H](C(=O)N[C@H](C(=O)N[C@@H](CC(C)C)[C@@H](O)CC(=O)N[C@@H](C)C(=O)N[C@@H](CC(C)C)[C@@H](O)CC(=O)O)C(C)C)C(C)C` [pepstatin] (Isovaleryl-VV[Sta]A[Sta]-OH), the “inhibitor of the retroviral protease” value in assay [2], in assay [3] and in assay [4] was “weak inhibitor” each time.

(Values after EP0352000A2, “Retroviral protease binding peptides” (SMITHKLINE BECKMAN CORPORATION, priority 1988, dated 1990).)
